# Measurements as given in publication PMC6222832, “Kinetic Characterization of Novel HIV-1 Entry Inhibitors: Discovery of a Relationship between Off-Rate and Potency” (Molecules : A Journal of Synthetic Chemistry and Natural …, 2018).
# What was measured:
# [1] = system: HIV-1 B41 Env pseudotyped HIV-1; assay: microbe, parasite or virus in culture; type: cell-based; conditions: Human immunodeficiency virus 1, U87/CD4/CCR5, 48 h, read-out: IC50 B41
# [2] = system: HIV-1 JR-CSF Env pseudotyped HIV-1; assay: microbe, parasite or virus in culture; type: cell-based; conditions: Human immunodeficiency virus 1, U87/CD4/CCR5, 48 h, read-out: IC50 JR-CSF
# [3] = system: HIV-1B41 and HIV-1JR-CSF Env pseudotyped virions; assay: microbe, parasite or virus in culture; type: cell-based; conditions: Human immunodeficiency virus 1, read-out: Median IC50
# [4] = target: HIV-1 B41 SOSIP.664 gp140 trimer (Human immunodeficiency virus type 1, UniProt B3UES2, A505C/E513R/I563P/INS515RR/K514R/T609C); type: binding
# [5] = target: B41 SOSIP.664 gp140 trimer (Human immunodeficiency virus type 1, UniProt B3UES2, A505C/E513R/I563P/INS515RR/K514R/T609C); type: binding, HIV-1
# in vitro = conditions: human
Structure (SMILES),IC50 [1] [nM],IC50 [2] [nM],IC50 [3] [nM],ka [4] [M⁻¹ s⁻¹],kd [4] [s⁻¹],ka [5] [M⁻¹ s⁻¹],kd [5] [s⁻¹],CC50 at 48 h (in vitro) [nM]
"COc1cnc(-n2cnc(C)n2)c2[nH]cc(C(=O)C(=O)N3CCN(C(=O)c4ccccc4)CC3)c12 [BMS-626529, reference compound]",0.05 ± 0.006,0.06 ± 0.005,0.055,38900,0.00059,–,–,–
COc1cnc(-n2cnc(C)n2)c2[nH]cc(C(=O)C(=O)N3CC4CN(C(=O)c5ccccc5)CC4C3)c12 (centres unmarked) [SC11],2 ± 0.2,0.6 ± 0.1,~2,–,–,4330,0.000287,> 50000
COc1cnc(-n2cnc(C)n2)c2[nH]cc(C(=O)C(=O)N3CC(CSC(=O)c4ccccc4)C3)c12 [SC16],37 ± 5,29 ± 8,33,–,–,86200,0.00598,> 50000
COc1cnc(-n2cnc(C)n2)c2[nH]cc(C(=O)C(=O)N(C)C3CN(C(=O)c4ccccc4)C3)c12 [SC18],360 ± 12,132 ± 4,246,–,–,15900,0.0248,> 50000
COc1cnc(-n2cnc(C)n2)c2[nH]cc(C(=O)C(=O)N3CC4C=NN(c5nnnn5-c5ccccc5)C4C3)c12 (centres unmarked) [SC39],5320 ± 260,143 ± 52,2730,–,–,1390,0.0381,> 50000
